Where two headings read alike, the source gives them in different places.
Assays:
rat hepatocytes = assay: Irreversible binding of tacrine-derived radioactivity to rat hepatocytes with chloroquine; assay type: in vitro ADME; details: Tacrine alone
Excerpt: D. J. Back, H. S. Purba, C. […] PHARMACOL., Vol. 32, pp. 257-264 (1983). Ethoxyresorufin O-deethylation is selectively catalyzed by P450 1A2. C. Gleizes, C. […] PHARMACOL. VOL. 41, pp. 1813-1820 (1991).

P450 2D6 = assay: Tacrine as substrate of P450 2D6: co-incubation with quinidine in human liver microsomes; assay type: in vitro ADME; details: for 1-Hydroxytacrine / Tacrine: quinidine -
Excerpt: U. A. Meyer, J. Gut, T. Kronbach, C. Skoda, U. T. Meier, and T. Catin, "The Molecular Mechanisms of Two Common Polymorphisms of Drug Oxidation-Evidence for Functional Changes in Cytochrome P-450 Isozymes Catalysing Bufuralol and Mephenytoin Oxidation", XENOBIOTICA, Vol 16, pp 449-464 (1986). […] PHARMACOL., Vol 37, pp 155-160 (1989).

[1] = Description: (§1) Total reaction volume was 3 mL. Reactions were stopped by freezing in liquid nitrogen or dry-ice acetone. […] D. J. Waxman and L. Axaroff, "Phenobarbital induction of cytochrome P-450 Gene Expression", BIOCHEM J, Vol. 281, pp. 577-592 (1992); P. Soucek and I. Gut, supra.
P4501A2 = details: co-incubation with tacrine
Description: as §1

[2] = Single-dose pharmacokinetic and metabolic disposition study of [14C]tacrine HCl in human male volunteers; assay type: in vivo; details: for mean cumulative fecal recovery of 14C activity / mean cumulative urinary recovery of 14C activity / mean total recovery: 5760 min
Description: Plasma and red blood cells (RBC) were collected predose and for 48 hours postdose. Urine and feces were collected predose and for 96 hours postdose. Urine and plasma samples were analyzed directly by liquid scintillation spectrometry while RBC and fecal samples were solubilized prior to counting. […] Metabolic profiling of urine was performed by HPLC radioactivity detection. Metabolites were identified by HPLC/photodiode array/mass spectrometry.

[3] = Irreversible protein binding of 14C-tacrine-derived radioactivity, human liver microsomes
Description: as §1
(§2) C. N. Martin and R. C. Garner: "Covalent Binding In Vitro and In Vivo" in BIOCHEMICAL TOXICOLOGY: A PRACTICAL APPROACH, Eds. K. Snell and B. Mullock, IRL, Wash. D.C. pp. 109-126 (1987).

P450 1A2 [4] = target: T1, P450 1A2 (Homo sapiens, UniProt P05177); assay: in vitro; details: human, microsomes
T1 sequence (P05177 2-516 limits assumed): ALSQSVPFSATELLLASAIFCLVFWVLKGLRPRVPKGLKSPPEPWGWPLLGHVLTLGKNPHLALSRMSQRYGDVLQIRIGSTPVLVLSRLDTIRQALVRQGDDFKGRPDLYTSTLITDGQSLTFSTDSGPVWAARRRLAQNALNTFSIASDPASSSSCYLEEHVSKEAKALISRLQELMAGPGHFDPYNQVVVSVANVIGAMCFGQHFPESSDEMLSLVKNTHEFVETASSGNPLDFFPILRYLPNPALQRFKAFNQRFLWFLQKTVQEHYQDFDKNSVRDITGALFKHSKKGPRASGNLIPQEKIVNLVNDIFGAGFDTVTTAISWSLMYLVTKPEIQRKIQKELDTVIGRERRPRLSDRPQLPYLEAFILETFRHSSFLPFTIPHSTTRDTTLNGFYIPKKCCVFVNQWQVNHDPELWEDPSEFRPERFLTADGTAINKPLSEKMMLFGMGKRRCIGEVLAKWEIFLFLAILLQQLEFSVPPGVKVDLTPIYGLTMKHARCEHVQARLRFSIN
Description: (§3) PHARMACOL., Vol. 42, pp. 767-772 (1990) was conducted. […] The effect of various enoxacin concentrations (8, 20, and 50 μM) on the extent of irreversible binding was examined in a separate study.

P450 1A2 [5] = assay: in vitro
Description: as §3

[6] = Irreversible protein binding of 14C-tacrine-derived radioactivity, rat liver microsomes; details: 60 min
Description: as §1, §2

[7] = cited from earlier work
[8] = Human Prep (letter not given), w/NADPH, 60 min
[9] = I induced Rat, with NADPH, N = 3
[10] = MC induced Rat, with NADPH, N = 3
[11] = Noninduced Rat, with NADPH, N = 3
[12] = PB induced Rat, with NADPH, N = 3

Cl.Nc1c2c(nc3ccccc13)CCCC2.O [Tacrine, 1,2,3,4-tetrahydro-9-acridinamine monohydrate monohydrochloride]
tacrine-equivalents bound per mg hepatic protein (rat hepatocytes; 5 min, N = 2): 0.020 nmol | tacrine-equivalents bound per mg hepatic protein (rat hepatocytes; 15 min): 0.037 nmol | tacrine-equivalents bound per mg hepatic protein (rat hepatocytes; 30 min): 0.061 nmol | tacrine-equivalents bound per mg hepatic protein (rat hepatocytes; 60 min): 0.128 nmol | tacrine-equivalents bound per mg hepatic protein (rat hepatocytes; 90 min): 0.183 nmol | tacrine-equivalents bound per mg hepatic protein (rat hepatocytes; 120 min): 0.294 nmol | tacrine-equivalents bound per mg hepatic protein (rat hepatocytes; 180 min): 0.377 nmol | catalysis by P450 2D6 of metabolism and irreversible binding (P450 2D6): not catalyzed by P450 2D6 | 1-Hydroxytacrine (P450 2D6; 0 min): 0 nMoles per 3 mL incubate | Tacrine (P450 2D6; 0 min): 2.13 nMoles per 3 mL incubate | metabolites observed (P450 2D6; 7-hydroxytacrine at incubation times through 40 min): mainly 1-hydroxytacrine with 7-hydroxytacrine also being observed | 1-Hydroxytacrine (P450 2D6; 5 min): 0.416 nMoles per 3 mL incubate | Tacrine (P450 2D6; 5 min): 1.24 nMoles per 3 mL incubate | 1-Hydroxytacrine (P450 2D6; 10 min): 0.716 nMoles per 3 mL incubate | Tacrine (P450 2D6; 10 min): 0.831 nMoles per 3 mL incubate | 1-Hydroxytacrine (P450 2D6; 20 min): 1.03 nMoles per 3 mL incubate | Tacrine (P450 2D6; 20 min): 0.302 nMoles per 3 mL incubate | 1-Hydroxytacrine (P450 2D6; 40 min): 1.34 nMoles per 3 mL incubate | Tacrine (P450 2D6; 40 min): 0 nMoles per 3 mL incubate | 1-Hydroxytacrine (P450 2D6; 60 min): 1.43 nMoles per 3 mL incubate | Tacrine (P450 2D6; 60 min): 0 nMoles per 3 mL incubate | 1-OH [1, 8]: 0.750 nmole equivalents | 4-OH [1, 8]: 0.039 nmole equivalents | POLAR UNKS [1, 8]: 0.039 nmole equivalents | UNKS [1, 8]: 0.146 nmole equivalents | TAC ([1]; Human Prep (letter not given), w/out NADPH, 60 min): 1.34 nmole equivalents | 1-OH ([1]; Human Prep C, w/NADPH, 60 min): 0.599 nmole equivalents | 2-OH ([1]; Human Prep C, w/NADPH, 60 min): 0.095 nmole equivalents | POLAR UNKS ([1]; Human Prep C, w/NADPH, 60 min): 0.035 nmole equivalents | UNKS ([1]; Human Prep C, w/NADPH, 60 min): 0.139 nmole equivalents | TAC ([1]; Human Prep C, w/out NADPH, 60 min): 1.07 nmole equivalents | 1-OH ([1]; Human Prep D, w/NADPH, 60 min): 0.201 nmole equivalents | TAC ([1]; Human Prep D, w/NADPH, 60 min): 0.803 nmole equivalents | TAC ([1]; Human Prep D, w/out NADPH, 60 min): 1.086 nmole equivalents | extent of metabolism ([1]; human liver preparation D): only partial tacrine turnover | major product detected ([1]; human liver preparations): 1-hydroxytacrine with minor amounts of the 2- and 4-hydroxytacrine regioisomers | extent of metabolism ([1]; human liver preparations B and C, within 60 min): completely metabolized | effect on 1-hydroxytacrine metabolism by P4501A2 (P4501A2): inhibited | Mean AUC(O-tldc) for tacrine, 1-, 2-, and 4-hydroxytacrine as part of total mean plasma radioactivity AUC(O-tldc) ([2]; 10 mg oral): approximately 3% | Mean AUC(O-tldc) for tacrine, 1-, 2-, and 4-hydroxytacrine as part of total mean plasma radioactivity AUC(O-tldc) ([2]; 40 mg oral): ~4% | mean cumulative fecal recovery of 14C activity ([2]; 10-mg oral): 23.2 % of dose | mean cumulative urinary recovery of 14C activity ([2]; 10-mg oral): 56.5 % of dose | mean total recovery ([2]; 10-mg oral): 79.4% | mean plasma total radioactivity AUC(O-tldc), dose proportionality ([2]; 10 and 40 mg oral): increased in a dose proportional manner | mean AUC(O-tldc), dose proportionality ([2]; 10 and 40 mg oral, plasma): increased greater than dose proportionally | difference in metabolic profiles between dose levels ([2]; 10 vs 40 mg, urine): No apparent differences | mean cumulative fecal recovery of 14C activity ([2]; 40-mg oral): 20.8% | mean cumulative urinary recovery of 14C activity ([2]; 40-mg oral): 54.1% | mean total recovery ([2]; 40-mg oral): 74.9% | Tmax ([2]; human, plasma, po, read-out: Time to maximum plasma concentration (tmax)): ~2 h | polar radioactive components, of urinary radioactivity ([2]; urine through 24 hours): 67% | unchanged drug excreted in urine ([2]; urine through 24 hours): only trace amounts of unchanged drug excreted | detection of a hydroxylamine metabolite [3]: unsuccessful | irreversible binding of 14C-tacrine-derived radioactivity to microsomal protein [3]: no detectable | rate and products of metabolism [3]: rapidly metabolized not only to 1-hydroxytacrine but also to 7-hydroxytacrine | Km (P450 1A2 [4]): < 5 µM | irreversible binding of derived radioactivity to microsomal protein (P450 1A2 [5]; Table 6, deletion of NADPH): no irreversible | Tacrine equivalents irreversibly bound to 1 mg microsomal protein (P450 1A2 [5]; Table 6, tacrine 0.3 μM, enoxacin 0.0, 20 min, N = 3, SD): 0.040 | Tacrine equivalents irreversibly bound to 1 mg microsomal protein (P450 1A2 [5]; tacrine 0.5 μM alone, 5 min, N = 3, SD): 0.022 ± 0.005 nmol | Tacrine equivalents irreversibly bound to 1 mg microsomal protein (P450 1A2 [5]; tacrine 0.5 μM alone, 10 min): 0.048 ± 0.006 nmol | Tacrine equivalents irreversibly bound to 1 mg microsomal protein (P450 1A2 [5]; tacrine 0.5 μM alone, 20 min): 0.096 ± 0.006 nmol | Tacrine equivalents irreversibly bound to 1 mg microsomal protein (P450 1A2 [5]; tacrine 0.5 μM alone, 45 min): 0.148 ± 0.024 nmol | Percent Bound [6, 9]: 4.62 ± 0.73% | Tacrine equivalents irreversibly bound to 1 mg microsomal protein [6, 9]: 0.042 ± 0.004 nmol | Tacrine equivalents irreversibly bound to 1 mg microsomal protein ([6]; I induced Rat, without NADPH): 0.003 nmol | Percent Bound [6, 10]: 14.5 ± 0.37% | Tacrine equivalents irreversibly bound to 1 mg microsomal protein [6, 10]: 0.139 ± 0.010 nmol | Tacrine equivalents irreversibly bound to 1 mg microsomal protein ([6]; MC induced Rat, without NADPH): 0.003 nmol | Percent Bound [6, 11]: 5.97 ± 0.68% | Tacrine equivalents irreversibly bound to 1 mg microsomal protein [6, 11]: 0.041 ± 0.001 nmol | Tacrine equivalents irreversibly bound to 1 mg microsomal protein ([6]; Noninduced Rat, without NADPH): 0.003 nmol | Percent Bound [6, 12]: 4.49 ± 0.85% | Tacrine equivalents irreversibly bound to 1 mg microsomal protein [6, 12]: 0.034 ± 0.006 nmol | Tacrine equivalents irreversibly bound to 1 mg microsomal protein ([6]; PB induced Rat, without NADPH): 0.002 nmol | Tacrine equivalents irreversibly bound to 1 mg microsomal protein ([6]; Table 3, MC induced Rat, NADPH, N = 3): 0.139 ± 0.010 nmol | extent of metabolism ([7]; animals and man): extensively metabolized | formation of THA metabolites in serum ([7]; patients given THA): very rapid formation of THA metabolites | liver enzymes after administration ([7]; patients): elevations of liver enzymes are found in some patients

From patent publication US5422350A, “Nitrogen substituted acridine and cytochrome P450 inhibitors and methods of use” (priority 1992, dated 1995)
